Legend:
[1] = test system: HEC59+chr.2 (MSH2 proficient via chromosome transfer); assay: Cell viability assay (CellTiter 96 Aqueous One Solution), MSH2-proficient endometrial cells; assay type: cell-based; settings: Homo sapiens; HEC59+chr.2, drug 24 hours; graphs not reaching 50% mortality were extrapolated; NA = data did not reach below 50%, no extrapolation possible; read-out: 50IC MSH2 proficient
Description: (§1) HEC59 cells (msh2 deficient) and the paired cell line HEC59 chr. that restores the MSH2-deficiency via chromosome transfer have been extensively characterized (Umar et al., 1997). Cells were grown in standard growth media (DMEM-F12+10% FBS). Cells were plated in microtiter plates at an appropriate concentration in 100 μl media and incubated overnight. Media was replaced with media containing drug and allowed to incubate for 24 hours at indicated concentrations. Untreated cells received fresh media with vehicle only. One solution reagent (CellTiter 96)(r) Aqueous One Solution) was added to existing media (20 μl/well) and allowed to incubate 3-4 hrs. A plate reader was used to record the absorbance at 490 nm. Assays were performed at least in triplicates. Cell viability at each concentration was analyzed for IC50 values using GraphPad Prism 4™. Graphs represent mean values and standard deviations.
(§2) We next tested these new rescinnamine analogs in a well-defined cellular system with an endometrial cell line deficient (HEC59) and proficient (via chromosome transfer, HEC59+chr.2) for MSH2. […] No significant difference was detected when determining the IC50 values.

[2] = test system: HEC59 cells (msh2 deficient); assay: Cell viability assay (CellTiter 96 Aqueous One Solution), MSH2-deficient endometrial cells; assay type: cell-based; settings: Homo sapiens; HEC59, drug 24 hours; graphs not reaching 50% mortality were extrapolated; NA = data did not reach below 50%, no extrapolation possible; read-out: 50IC MSH2 deficient
Description: as §1, §2

HEC59 and HEC59+chr.2 = assay: Cell viability compared between the paired MSH2-deficient and MSH2-proficient endometrial cell lines; assay type: cell-based, human; settings: for cell killing: endometrial cell line deficient (HEC59) and proficient (HEC59+chr.2) for MSH2, data not shown; for change of IC50 when MSH2 is present: HEC59+chr.2 vs HEC59; for change in sensitivity to MSH2: comparison of isomers, MSH2 proficient vs deficient IC50; for difference between MSH2-proficiency and deficiency (MSH2-dependence of cell killing): HEC59 vs HEC59+chr.2
Description: as §1, §2

MSH2 = settings: previously shown (Vasilyeva 2009, 2010); cited from earlier work
ovarian cancer cells = assay: Overcoming resistance to cisplatin in ovarian cancer cells; assay type: cell-based; settings: data not shown
SW416 or HEC59 cells = assay: Xenograft model; assay type: in vivo, mice
Description: SW416 or HEC59 cells in PBS mixed with Matrigel (1:1; BD Biosciences) were subcutaneously injected into the flank of nude donor mice. Tumors were grown for up to 3 weeks. Mice were euthanized, tumors excised, minced into 3 mm pieces, and surgically implanted into the right flank of acceptor mice (10 per group). Isoflurane anesthesia was provided during tumor inoculation. Injection of compounds was started 3 days following tumor implantation to allow recovery from surgery. Compounds were given intraperitoneally, in a volume of 0.5 ml/mouse with a ¼ inch, 23-gauge needle in a 6 ml plastic syringe. Mice were monitored based on survival and body weight. Tumor size, measured by caliper, and body weight were monitored […] for 57 days, and the prolongation of median survival time after ip treatment determined. Any animals showing signs of distress, unnatural movements, severe loss of appetite, severe signs of hypotension, tumor size of […], or weight loss exceeding 10% before the end of the study were euthanized. Tumors were measured twice a week for each group. Tumor volume is calculated as length(mm)×width (mm)^2. Initial measurements were performed when the tumor reached 150-200 mg. Tumor weight (in mg) is calculated as tumor weight (mg)[…](length(mm) of tumor×width (mm) of tumor^2)/2.

SMILES | IC50 [1] [µM] | IC50 [2] [µM] | cell killing (HEC59 and HEC59+chr.2) | other results
C=CC(=O)O[C@@H]1C[C@@H]2CN3CCc4c([nH]c5cc(OC)ccc45)[C@H]3C[C@@H]2[C@H](C(=O)OC)[C@H]1OC [SA-I-03, Acryloyl Reserpate] | 20.4 | 20.7 | induced cell killing in the micromolar range | melting point: > 260 °C
COC(=O)c1cc(/C=C/C(=O)O[C@@H]2C[C@@H]3CN4CCc5c([nH]c6cc(OC)ccc56)[C@H]4C[C@@H]3[C@H](C(=O)OC)[C@H]2OC)ccc1OC [SA-I-012] | 48.9 | 50.7 |  | 
COC(=O)[C@H]1[C@H]2C[C@@H]3c4[nH]c5cc(OC)ccc5c4CCN3C[C@H]2C[C@@H](OC(=O)/C=C/c2ccc(C(=O)O)c(OC)c2)[C@@H]1OC [SA-I-013] | 1220 | 163 |  | change of IC50 when MSH2 is present (HEC59 and HEC59+chr.2): reduction in IC50 when MSH2 is present; change in sensitivity to MSH2 (HEC59 and HEC59+chr.2): ~8 fold
COC(=O)[C@H]1[C@H]2C[C@@H]3c4[nH]c5cc(OC)ccc5c4CCN3C[C@H]2C[C@@H](OC(=O)/C=C/c2ccc(OC)c(C(=O)O)c2)[C@@H]1OC [SA-I-015] | 84.2 | 89.3 |  | 
COC(=O)[C@H]1[C@H]2C[C@@H]3c4[nH]c5cc(OC)ccc5c4CCN3C[C@H]2C[C@@H](OC(=O)/C=C/c2ccc(O)c(OC)c2)[C@@H]1OC [SA-I-016] |  |  |  | difference between MSH2-proficiency and deficiency (MSH2-dependence of cell killing) (HEC59 and HEC59+chr.2): small difference between MSH2-proficiency and deficiency
COC(=O)[C@H]1[C@H]2C[C@@H]3c4[nH]c5cc(OC)ccc5c4CCN3C[C@H]2C[C@@H](OC(=O)/C=C/c2ccc(OC)c(OC(C)=O)c2)[C@@H]1OC [SA-I-019] |  | 39.3 | induced cell killing in the micromolar range | 
COC(=O)[C@H]1[C@H]2C[C@@H]3c4[nH]c5cc(OC)ccc5c4CCN3C[C@H]2C[C@@H](OC(=O)/C=C/c2ccc(OC)c(O)c2)[C@@H]1OC [SA-I-020] | 21.3 | 22.3 | induced cell killing in the micromolar range | 
COC(=O)[C@H]1[C@H]2C[C@@H]3c4[nH]c5cc(OC)ccc5c4CCN3C[C@H]2C[C@@H](OC(=O)/C=C/c2cc(OC)c(O)c(OC)c2)[C@@H]1OC [SA-I-027] | 54.5 | 47.7 | induced cell killing in the micromolar range | 
COC(=O)[C@H]1[C@H]2C[C@@H]3c4[nH]c5cc(OC)ccc5c4CCN3C[C@H]2C[C@@H](OC(=O)/C=C/c2ccc(OC)c(N)c2)[C@@H]1OC [SA-I-029] | 113 | 77.2 |  | change of IC50 when MSH2 is present (HEC59 and HEC59+chr.2): reduction in IC50 when MSH2 is present; change in sensitivity to MSH2 (HEC59 and HEC59+chr.2): ~2 fold
COC(=O)[C@H]1[C@H]2C[C@@H]3c4[nH]c5cc(OC)ccc5c4CCN3C[C@H]2C[C@@H](OC(=O)/C=C/c2ccc(N)c(OC)c2)[C@@H]1OC [SA-I-039] | 68.4 | 85.7 | induced cell killing in the micromolar range | difference between MSH2-proficiency and deficiency (MSH2-dependence of cell killing) (HEC59 and HEC59+chr.2): small difference between MSH2-proficiency and deficiency; change in sensitivity to MSH2 (HEC59 and HEC59+chr.2): ~2 fold
CCC(=O)O[C@@H]1C[C@@H]2CN3CCc4c([nH]c5cc(OC)ccc45)[C@H]3C[C@@H]2[C@H](C(=O)OC)[C@H]1OC [SA-I-058, Propionoyl Reserpate] |  |  |  | melting point: 258 °C
COC(=O)[C@H]1[C@H]2C[C@@H]3c4[nH]c5cc(OC)ccc5c4CCN3C[C@H]2C[C@@H](OC(=O)/C=C/c2cc(OC)c(OC)c(OC)c2)[C@@H]1OC [rescinnamine] |  |  |  | induction of MSH2-dependent cell death (MSH2): capable of inducing cell death in an MSH2-dependent manner; overcoming resistance to cisplatin (ovarian cancer cells): capable of overcoming resistance to cisplatin in ovarian cancer cells; hypotensive activity limiting the dose (SW416 or HEC59 cells): hypotensive activity of the drug prevented administration of statistically effective doses; tumor inhibition (SW416 or HEC59 cells; data not shown): significant trend toward tumor inhibition
COC(=O)[C@H]1[C@H]2C[C@@H]3c4[nH]c5cc(OC)ccc5c4CCN3C[C@H]2C[C@@H](OC(=O)c2cc(OC)c(OC)c(OC)c2)[C@@H]1OC [reserpine] |  |  |  | induction of MSH2-dependent cell death (MSH2): capable of inducing cell death in an MSH2-dependent manner

From patent US20140323511A1, “CHEMOTHERAPEUTIC FOR INDUCING AN MSH2 DEPENDENT APOPTOTIC PATHWAY” (Wake Forest University Health Sciences, priority 2013, published 2014)
